Holding throughout (type): in vivo, Sprague-Dawley rats
In test [1] the test system is rats with HF induced by LAD ligation. The test can be described thus: Ex vivo end-diastolic pressure-volume relationships (EDPVR) (Example 5). The following applies: for passive LV Volume at 30 mmHg, normalized for heart weight: ex vivo EDPVR, HF 0.50, Sham 0.36. As to the method:
(§1) A total of 69 rats were used in this study. LAD ligation surgery was performed in 60 rats, of which 37 (62%) survived three weeks post-surgery. Another 9 rats underwent a sham operation (group Sham), with 7 (78%) survivors. Three weeks post-operatively, echocardiography was performed to establish the baseline level of HF (as measured by fractional shortening). The LAD ligation rats were divided into 4 treatment groups matched for the degree of HF and were randomly assigned to one of the following therapies for 9 additional weeks: (1) rats receiving no therapy (group HF, n=9); (2) rats receiving high-dose clenbuterol at 1 mg/kg/day (group Clen, n=9); (3) rats receiving high-dose metoprolol at 200 mg/kg/day (group Meto, n=9); or (4) rats receiving concurrent high-dose clenbuterol at 1 mg/kg/day and high-dose metoprolol therapy at 200 mg/kg/day (group Clen+Meto, n=10).
An 18-gauge angiocatheter was placed into the LV through the aortic valve and connected to a three-way stopcock. A fine hemostat was placed on the atrial side of the mitral annulus to seal the LV. After eliminating any air from the system, LV pressures were measured using a […] Millar micromanometer introduced through the angiocatheter. While recording LV pressure using an analog-to-digital conversion reading system (Chart 4, version 4.2.4; ADInstruments, Colorado Springs, Colo.), saline was infused into the LV cavity in 50 μL increments using a calibrated 1 mL syringe. The infused fluid was withdrawn and measured to ensure that no leakage had occurred. Data was utilized only if >95% of the injected volume was recovered. Using commercial software (Igor Pro, version 4.0.5.1; WaveMetrics, Lake Oswego, Oreg.), values of LV pressure (P) and volume (V) were fitted according to the equation: […]
where β is the base constant and α is an index of ventricular stiffness, as previously described (Mirsky I. Assessment of passive elastic stiffness of cardiac muscle: mathetical concepts, physiologic and clinical considerations, directions of future research. Prog Cardiovasc Dis. 1976; 18:277-308). […]

Test [2] shares this test system. Kind of test: Hemodynamic measurements (Millar catheter) in LAD ligation ischemic HF rats (Example 5). Particulars: mean ± SD, after 9 weeks oral therapy; for MAP: HF 47.2 ± 8.85, Sham 39.8 ± 5.56; for LVSP: HF 113 ± 10.3, Sham 116 ± 17.3; for HR: HF 302 ± 19.1, Sham 291 ± 52.2; for Maximum dP/dt: HF 4609 ± 583, Sham 6700 ± 1706; for Minimum dP/dt: HF −3854 ± 563, Sham −6458 ± 1799. As to the method: After the induction of general anesthesia with the use of intraperitoneal ketamine (75 mg/kg; Fort Dodge Animal Health, Fort Dodge, Iowa) and xylazine (5 mg/kg; Lloyd Laboratories, Shenandoah, Iowa), endotracheal intubation with a 16-guage angiocathether was performed. Rats were supported by a small animal ventilator (Harvard Apparatus, Holliston, Mass.). After performing a left thoracotomy, a sham operation (pericardiectomy only) or left anterior descending artery (LAD) ligation with a 7-0 polypropylene suture was performed. Subsequently, a chest tube (16-guage angiocathether) was placed in the left pleural space prior to closing the incision in three layers. Finally, the chest tube was used to aspirate the pleural cavity and removed after extubation.
as §1, with “LAD ligation surgery was performed in 60 rats, of which 37 (62%) survived three weeks post-surgery. Another 9 rats underwent a sham operation (group Sham), with 7 (78%) survivors.” left out
Clenbuterol (ICN Biomedicals, Aurora, Ohio) was sonicated and subsequently dissolved in the drinking water. Metoprolol (Sigma-Aldrich, St. Louis, Mo.) was dissolved in the drinking water either alone or in combination with clenbuterol for the Clen+Meto group. The concentrations of clenbuterol and metoprolol were varied to keep the study drug dose delivered within a narrow therapeutic window based on daily water consumption. […] The treated drinking water was made fresh every 48-72 hours. Oral pharmacotherapy was continued for a total of 9 weeks.
In the terminal experiments 12 weeks post-surgery, the rats were anesthetized with inhaled isoflurane mixed with oxygen. A 2-French Millar catheter (Millar Instruments, Houston, Tex.) was inserted into the right carotid artery and pressure measurements collected and saved as the catheter was advanced into the left ventricle. The heart was quickly arrested in diastole and excised. Hearts were subsequently weighed and used for the ex vivo determination of LV end-diastolic pressure-volume relationships (EDPVR). Using Chart 4 (version 4.2.4, ADInstruments, Colorado Springs, Colo.), left ventricular end-diastolic pressure (LVEDP), left ventricular systolic pressure (LVSP), mean aortic pressure (MAoP), heart rate, and maximum and minimum LV dP/dt (dP/dtmax and dP/dtmin) were later obtained from stored hemodynamic recordings by a single individual (S.X.), who was blinded to animals' group assignments.

Test [3] deals with myocytes (TUNEL, 8-oxoG, MYH, OGG1 staining). The test can be described thus: Quantitative immunohistochemistry staining of apoptosis, DNA damage and DNA repair markers (Example 5). Particulars: mean ± SD; for 8-oxoG: DNA damage product, HF 18 ± 4, Sham 0.5 ± 0.1; for OGG1: DNA repair marker, HF 0.5 ± 0.1, Sham 0.2 ± 0.1; for TUNEL: percentage of myocytes with nuclear staining, HF 21 ± 4, Sham 0.5 ± 0.1; for MYH (score): score 0 = 0%, 1 = 0-15%, 2 = 15-30%, 3 = 30-50%, 4 = >50% positive, HF 1.4 ± 0.5, Sham 0.6 ± 0.2. As to the method: as §1
A short-axis section of the heart at the point of maximal infarction was fixed in 4% paraformaldehyde solution for 12 hours. Sections were then embedded in paraffin and 5 μm slices used for trichrome staining. The infarct size was determined as a percentage of the LV circumference under light microscopy by a single individual (S.X.) blinded to group assignment. The remaining heart tissue was flash-frozen in liquid nitrogen and stored at −80° C. for Western blot analysis.
Histological sections (5 μm thick) were used to perform immunohistochemistry for: terminal deoxynucleotidyltransferase end labeling (TUNEL; apoptosis marker), 8-oxoG (DNA damage product), MYH (DNA mismatch repair enzyme), and OGG1 (DNA base excision repair enzyme). The percentage of myocytes with nuclear staining was quantified in a blinded manner. Because OGG1 is found both in the nucleus and cytoplasm, a scoring system was utilized to semi-quantitatively describe the staining observed: 0=no staining; 1=0 to 15% staining; 2=15 to 30% staining; 3=30 to 50% staining; and 4=>50% staining of the nucleus and cytoplasm.

SMILES strings stand for the structures.

`CC(C)(C)NCC(O)c1cc(Cl)c(N)c(Cl)c1` (stereo not drawn) [Clen, clenbuterol]: the “passive LV Volume at 30 mmHg, normalized for heart weight” value in test [1] is on record as 0.42 mL/gm of heart weight. Also, in test [2], the MAP turned out to be 44.2 ± 6.06 mmHg, the LVSP came to 109 ± 10.7 mmHg, the HR amounted to 281 ± 11.2 bpm and the “Maximum dP/dt” value is 4933 ± 596 mmHg/s. In addition, in test [2], the “Minimum dP/dt” value is recorded as 3901 ± 694 mmHg/s. Besides, in test [3], the 8-oxoG was 10 ± 2 † %, the OGG1 is listed as 8.2 ± 2.2 † %, the TUNEL is recorded as 11 ± 3 † % and the “MYH (score)” value is reported as 2.8 ± 0.5 † score.
For `COCCc1ccc(OCC(O)CNC(C)C)cc1` (stereo not drawn) [Meto, metoprolol], the “passive LV Volume at 30 mmHg, normalized for heart weight” value in test [1] is 0.51 mL/gm of heart weight. In test [1] (ex vivo, normalized for heart weight), the “shift of EDPVR curve versus Sham rats” value is “rightward shift”. For the same compound, in test [2], the MAP turned out to be 42.7 ± 5.38 mmHg, the LVSP is given as 107 ± 9.27 mmHg, the HR was determined as 243 ± 19.4 bpm and the “Maximum dP/dt” value was found to be 5462 ± 541 mmHg/s. In addition, the “Minimum dP/dt” value in test [2] is listed as −4032 ± 830 mmHg/s. Moreover, in test [3], the 8-oxoG was 12 ± 3 † %, the OGG1 was 6.4 ± 1.5 † %, the TUNEL is recorded as 12 ± 4 † % and the “MYH (score)” value is listed as 2.6 ± 0.4 † score.

These data come from patent publication US20090088482A1, “Compositions and Methods For Treating Heart Failure” (The Trustees Of Columbia University In The City New York, priority 2003, published 2009).
